Data: US20210361539A1, “NONAQUEOUS COMPOSITION FOR EXTERNAL USE ON SKIN AND METHOD FOR PRODUCING THE SAME” (CHANEL PARFUMS BEAUTE, priority 2017, published 2021)

Test: Particle size measurement by dynamic light scattering
Type: physicochemical
Conditions: steps (a) to (e) without palmitoyl-L-carnitine chloride
Experimental: The particle size of particles contained in the nonaqueous composition for external use on the skin immediately after preparation was measured by the dynamic light scattering method.
Specifically, the measurement was performed on the number mode using a nanoparticle analysis system (Zetasizer Nano ZSP model manufactured by Malvern Instruments Ltd.).

sucrose erucic acid ester
Particle size of composition containing particles of the surfactant alone: about 2.5 nm
